Reference: US20250275959A1, “COMPOUNDS AND METHODS OF THEIR USE” (LEXICON PHARMACEUTICALS, INC., priority 2024, published 2025)

Experiments:
hACSL5 [1] = biological target: T1, hACSL5 (Homo sapiens (Human), UniProt Q9ULC5); experiment: Human ACSL5 coupled enzyme Amplex Red assay; type: biochemical; conditions: read-out: hACSL5 IC50
Method in brief: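 Amplex Red coupled readout: 1 mM ATP, 25 μM oleate and 30 μM CoA were added to compound-preincubated enzyme (20 nM, residues 33-683, insect-cell expressed, His-tagged) with coupling peroxidase and acyl-CoA oxidase at pH 7.6. Signal was read at 535/590 nm after 10 minutes at 25° C., and Hill fits yielded half-maximal and maximal inhibition.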
Target sequence in this assay (Q9ULC5 33-683): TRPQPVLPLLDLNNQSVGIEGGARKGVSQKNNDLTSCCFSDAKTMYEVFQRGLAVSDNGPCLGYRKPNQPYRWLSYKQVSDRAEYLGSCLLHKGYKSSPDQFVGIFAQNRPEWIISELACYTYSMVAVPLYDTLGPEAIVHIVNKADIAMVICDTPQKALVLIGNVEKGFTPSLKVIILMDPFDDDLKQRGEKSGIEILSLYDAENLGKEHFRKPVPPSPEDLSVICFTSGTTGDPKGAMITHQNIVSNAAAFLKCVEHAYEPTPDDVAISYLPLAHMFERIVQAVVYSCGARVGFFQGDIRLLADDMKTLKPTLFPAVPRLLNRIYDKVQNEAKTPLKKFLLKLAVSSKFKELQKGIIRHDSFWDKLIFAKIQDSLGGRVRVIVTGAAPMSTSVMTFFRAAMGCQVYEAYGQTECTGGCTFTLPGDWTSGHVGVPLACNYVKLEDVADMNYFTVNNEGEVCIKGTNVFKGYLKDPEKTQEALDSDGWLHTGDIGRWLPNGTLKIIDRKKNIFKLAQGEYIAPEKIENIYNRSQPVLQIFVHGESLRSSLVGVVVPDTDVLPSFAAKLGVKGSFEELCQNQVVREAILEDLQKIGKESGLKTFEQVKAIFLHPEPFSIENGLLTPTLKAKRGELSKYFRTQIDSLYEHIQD

hACSL5 [2] = biological target: T1, hACSL5; experiment: Cell-based assay (CBA) with B12FA in hACSL5-transfected Expi293F / FlpIn TRex293 cells; conditions: hACSL5-expressing cells
From the text: To assess the cell penetration and cellular activity of the compounds, a cell-based assay (CBA) was used to detect compound potency in living cells. The assay utilized the fluorescent fatty acid analogue B12FA, a boron-dipyrromethene (BODIPY™) labelled C12 fatty acid that can be incorporated into glycerophosphocholine in the cytoplasmic oil droplets of live cells. A concentration-dependent, red-shifted fluorescence can be induced by the formation of BODIPY™ excimers in the oil droplets.
Expi293F cells transfected with full length hACSL5 plasmid were selected using 1 mg/mL G418 culture medium and clones were selected by in vitro whole cell lysate (WCL) assay. The cell passage number used in the Expi293 CBA assay could not be used beyond 10 passages due to a decrease in hACSL5 expression. Therefore, a CBA using FlpIn TRex293 cells for inducible expression of hACSL5 was also established.
FlpIn TRex293 cells transfected with hACSL5 plasmid were selected in culture medium containing 15 µg/ml Blasticidin and 150 µg/ml Hygromycin. For cell-based assays, stable transfected hACSL5 cells were seeded onto a 96-well plate at 30-50k/well and incubated overnight. For the inducible system, […] tetracycline (or doxycycline) was added to culture medium of FlpIn TRex293 hACSL5 cells on the day before the assay to induce expression of hACSL5. The next day, growth media was replaced with culture medium without FBS and glucose (DMEM glucose (-), ThermoFisher) and cells were incubated for an hour before treating cells with serial diluted compounds containing 20 µM B12FA (ThermoFisher) for another 3 hours in the above medium. Cells were then fixed in 4% formaldehyde for 10 minutes and washed twice with PBS. The plate was read using the Cytation 5 imaging system with an excitation wavelength of 485 nm and observed emissions at 630 nm and 520 nm. The percentage of inhibition was calculated as: […]
wherein A is the ratio of emission intensities at 630 nm/520 nm in the absence of inhibitor (maximum ratio); B is the ratio of the intensities at those wavelengths in the presence of […] of the test compound or non-induced cells (minimum ratio); and X is the ratio of the intensities at a given compound concentration.
Concentration-response titration points for each compound tested were filled to the Hill equation yielding concentrations of half maximal inhibition […] and maximal inhibition values.
Target sequence in this assay (Q9ULC5 whole entry, the tested form may be a part): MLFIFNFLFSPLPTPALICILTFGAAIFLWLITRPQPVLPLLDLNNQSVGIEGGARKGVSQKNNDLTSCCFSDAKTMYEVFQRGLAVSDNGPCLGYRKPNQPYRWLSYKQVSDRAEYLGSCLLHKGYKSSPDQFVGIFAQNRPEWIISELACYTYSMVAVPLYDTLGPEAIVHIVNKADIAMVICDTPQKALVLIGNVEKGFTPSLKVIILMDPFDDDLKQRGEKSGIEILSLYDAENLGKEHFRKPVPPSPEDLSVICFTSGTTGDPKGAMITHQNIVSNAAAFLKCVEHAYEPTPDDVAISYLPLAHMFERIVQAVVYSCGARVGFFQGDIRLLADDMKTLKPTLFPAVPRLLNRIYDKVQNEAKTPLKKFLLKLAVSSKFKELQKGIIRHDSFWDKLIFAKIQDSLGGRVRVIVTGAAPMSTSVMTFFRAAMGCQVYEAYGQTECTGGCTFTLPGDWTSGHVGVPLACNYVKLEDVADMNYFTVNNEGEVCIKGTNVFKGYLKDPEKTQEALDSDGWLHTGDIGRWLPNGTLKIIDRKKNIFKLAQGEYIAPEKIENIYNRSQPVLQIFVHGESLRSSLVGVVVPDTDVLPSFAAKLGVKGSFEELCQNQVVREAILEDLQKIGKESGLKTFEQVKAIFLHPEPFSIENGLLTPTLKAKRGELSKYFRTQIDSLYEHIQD

Row | Compound | IC50 (hACSL5 [1]) [nM] | IC50 (hACSL5 [2]) [nM]
1 | CC[C@@H](Oc1ccc(C(=O)NS(=O)(=O)N2CCN(C(C)C)CC2)c(F)c1F)c1ccc(OCC2CC2)cn1 [(R)-4-(1-(5-(cyclopropylmethoxy)pyridin-2-yl)propoxy)-2,3-difluoro-N-((4-isopropylpiperazin-1-yl)sulfonyl)benzamide] | 100 to 500 | 100 to 500
2 | CC[C@@H](Oc1ccc(C(=O)NS(=O)(=O)c2ccc(OC3CCN(CCOC)CC3)cc2)c(F)c1F)c1ccc(OCC2CC2)cn1 [(R)-4-(1-(5-(cyclopropylmethoxy)pyridin-2-yl)propoxy)-2,3-difluoro-N-((4-((1-(2-methoxyethyl)piperidin-4-yl)oxy)phenyl)sulfonyl)benzamide] | < 100 | < 100
3 | CC[C@@H](Oc1ccc(C(=O)NS(=O)(=O)N2CC3CC(C2)N3C)c(F)c1F)c1ccc(OCC2CC2)cn1 [4-((R)-1-(5-(cyclopropylmethoxy)pyridin-2-yl)propoxy)-2,3-difluoro-N-((6-methyl-3,6-diazabicyclo[3.1.1]heptan-3-yl)sulfonyl)benzamide] | < 100 | < 100
4 | CC[C@@H](Oc1ccc(C(=O)NS(=O)(=O)N2CCN(C)CC2)c(F)c1F)c1cc(Oc2ccccn2)ccn1 [(R)-2,3-difluoro-N-((4-methylpiperazin-1-yl)sulfonyl)-4-(1-(4-(pyridin-2-yloxy)pyridin-2-yl)propoxy)benzamide] | < 100 | 100 to 500
5 | CC[C@@H](Oc1ccc(C(=O)NS(=O)(=O)c2ccc(OC3CCN(CCO)CC3)cc2)c(F)c1F)c1ccc(OCC2CC2)cn1 [(R)-4-(1-(5-(cyclopropylmethoxy)pyridin-2-yl)propoxy)-2,3-difluoro-N-((4-((1-(2-hydroxyethyl)piperidin-4-yl)oxy)phenyl)sulfonyl)benzamide] | < 100 | 100 to 500
6 | CC[C@@H](Oc1ccc(C(=O)NS(=O)(=O)c2ccc(OC3CCN(C)CC3)cc2)c(F)c1F)c1cc(OCC2CC2)ccn1 [(R)-4-(1-(4-(cyclopropylmethoxy)pyridin-2-yl)propoxy)-2,3-difluoro-N-((4-((1-methylpiperidin-4-yl)oxy)phenyl)sulfonyl)benzamide] | 100 to 500 | 100 to 500
7 | CC[C@@H](Oc1ccc(C(=O)NS(=O)(=O)N2CCN(CCOC)CC2)c(F)c1F)c1ccc(OCC2CC2)cn1 [(R)-4-(1-(5-(cyclopropylmethoxy)pyridin-2-yl)propoxy)-2,3-difluoro-N-((4-(2-methoxyethyl)piperazin-1-yl)sulfonyl)benzamide] | < 100 | < 100
8 | CC[C@@H](Oc1ccc(C(=O)NS(=O)(=O)N2CCN(C)[C@H](C)C2)c(F)c1F)c1ccc(OCC2CC2)cn1 [4-((R)-1-(5-(cyclopropylmethoxy)pyridin-2-yl)propoxy)-N-(((R)-3,4-dimethylpiperazin-1-yl)sulfonyl)-2,3-difluorobenzamide] | < 100 | < 100
9 | CC[C@@H](Oc1ccc(C(=O)NS(=O)(=O)N2CCC(OC3CCN(C)CC3)CC2)c(F)c1F)c1cc(Oc2ccccn2)ccn1 [(R)-2,3-difluoro-N-((4-((1-methylpiperidin-4-yl)oxy)piperidin-1-yl)sulfonyl)-4-(1-(4-(pyridin-2-yloxy)pyridin-2-yl)propoxy)benzamide] | < 100 | 100 to 500
10 | CC[C@@H](Oc1ccc(C(=O)NS(=O)(=O)N2CCC(OC3CCN(C)CC3)CC2)c(F)c1F)c1cccc(OCC2CC2)c1 [(R)-4-(1-(3-(cyclopropylmethoxy)phenyl)propoxy)-2,3-difluoro-N-((4-((1-methylpiperidin-4-yl)oxy)piperidin-1-yl)sulfonyl)benzamide] | 100 to 500 | 100 to 500
11 | CC[C@@H](Oc1ccc(C(=O)NS(=O)(=O)c2ccc(CN3CCN(CC)CC3)nc2)c(F)c1F)c1ccc(OCC2CC2)cn1 [(R)-4-(1-(5-(cyclopropylmethoxy)pyridin-2-yl)propoxy)-N-((6-((4-ethylpiperazin-1-yl)methyl)pyridin-3-yl)sulfonyl)-2,3-difluorobenzamide] | < 100 | > 500
12 | CC[C@@H](Oc1ccc(C(=O)NS(=O)(=O)N2CCN(C3CC3)CC2)c(F)c1F)c1ccc(OC2CC(OC)C2)cn1 (stereo partly drawn) [N-((4-cyclopropylpiperazin-1-yl)sulfonyl)-2,3-difluoro-4-((R)-1-(5-((1R,3R)-3-methoxycyclobutoxy)pyridin-2-yl)propoxy)benzamide] | < 100 | 100 to 500
13 | CC[C@@H](Oc1ccc(C(=O)NS(=O)(=O)N2C[C@@H](C)N(C)[C@@H](C)C2)c(F)c1F)c1ccc(OCC2CC2)cn1 [4-((R)-1-(5-(cyclopropylmethoxy)pyridin-2-yl)propoxy)-2,3-difluoro-N-(((3S,5R)-3,4,5-trimethylpiperazin-1-yl)sulfonyl)benzamide] | < 100 | < 100
14 | CC[C@@H](Oc1ccc(C(=O)NS(=O)(=O)N2CCN(C)CC2)cc1C(F)(F)F)c1ccc(OCC2CC2)cn1 [(R)-4-(1-(5-(cyclopropylmethoxy)pyridin-2-yl)propoxy)-N-((4-methylpiperazin-1-yl)sulfonyl)-3-(trifluoromethyl)benzamide] | < 100 | < 100
15 | CC[C@@H](Oc1ccc(C(=O)NS(=O)(=O)c2ccc(OCCN(C)C)cc2)cc1C(F)(F)F)c1ccc(Oc2ccccn2)cn1 [(R)-N-((4-(2-(dimethylamino)ethoxy)phenyl)sulfonyl)-4-(1-(5-(pyridin-2-yloxy)pyridin-2-yl)propoxy)-3-(trifluoromethyl)benzamide] | < 100 | < 100
16 | CC[C@@H](Oc1ccc(C(=O)NS(=O)(=O)c2ccc(OC3CCN(CC(F)F)CC3)cc2)c(F)c1F)c1ccc(OCC2CC2)cn1 [(R)-4-(1-(5-(cyclopropylmethoxy)pyridin-2-yl)propoxy)-N-((4-((1-(2,2-difluoroethyl)piperidin-4-yl)oxy)phenyl)sulfonyl)-2,3-difluorobenzamide] | < 100 | 100 to 500
17 | CCOc1ccc(C(C)Oc2ccc(C(=O)NS(=O)(=O)c3ccc(OCCn4ccnc4)cc3)c(F)c2F)nc1 (stereo not shown) [N-((4-(2-(1H-imidazol-1-yl)ethoxy)phenyl)sulfonyl)-4-(1-(5-ethoxypyridin-2-yl)ethoxy)-2,3-difluorobenzamide] | 100 to 500 | > 500
18 | CC[C@@H](Oc1ccc(C(=O)NS(=O)(=O)c2ccc(OC3CCN(C)CC3)cn2)c(F)c1F)c1ccc(OCC2CC2)cn1 [(R)-4-(1-(5-(cyclopropylmethoxy)pyridin-2-yl)propoxy)-2,3-difluoro-N-((5-((1-methylpiperidin-4-yl)oxy)pyridin-2-yl)sulfonyl)benzamide] | < 100 | > 500
19 | CC[C@@H](Oc1ccc(C(=O)NS(=O)(=O)C(C)(C)CN(C)C)c(F)c1F)c1ccc(Oc2ccccn2)cn1 [(R)-N-((1-(dimethylamino)-2-methylpropan-2-yl)sulfonyl)-2,3-difluoro-4-(1-(5-(pyridin-2-yloxy)pyridin-2-yl)propoxy)benzamide] | < 100 | < 100
20 | CC[C@@H](Oc1ccc(C(=O)NS(=O)(=O)N2CC3(CC(OCCN4CCCC4)C3)C2)c(F)c1F)c1ccc(OCC2CC2)cn1 [(R)-4-(1-(5-(cyclopropylmethoxy)pyridin-2-yl)propoxy)-2,3-difluoro-N-((6-(2-(pyrrolidin-1-yl)ethoxy)-2-azaspiro[3.3]heptan-2-yl)sulfonyl)benzamide] | < 100 | > 500
21 | CC[C@@H](Oc1ccc(C(=O)NS(=O)(=O)N2CCN(C3CC3)CC2)c(F)c1F)c1ccc(OCC2CC2)cn1 [(R)-4-(1-(5-(cyclopropylmethoxy)pyridin-2-yl)propoxy)-N-((4-cyclopropylpiperazin-1-yl)sulfonyl)-2,3-difluorobenzamide] | < 100 | < 100
22 | CC[C@@H](Oc1ccc(C(=O)NS(=O)(=O)c2cnc(OC3CCN(C)CC3)nc2)c(F)c1F)c1ccc(OCC2CC2)cn1 [(R)-4-(1-(5-(cyclopropylmethoxy)pyridin-2-yl)propoxy)-2,3-difluoro-N-((2-((1-methylpiperidin-4-yl)oxy)pyrimidin-5-yl)sulfonyl)benzamide] | < 100 | > 500
23 | CC[C@@H](Oc1ccc(C(=O)NS(=O)(=O)N2CCN(CC3CC3)CC2)c(F)c1F)c1ccc(OCC2CC2)cn1 [(R)-4-(1-(5-(cyclopropylmethoxy)pyridin-2-yl)propoxy)-N-((4-(cyclopropylmethyl)piperazin-1-yl)sulfonyl)-2,3-difluorobenzamide] | < 100 | 100 to 500
